{"source": "patent US12332245B2", "about": "“Cancer biomarkers and methods of use thereof” (THE REGENTS OF THE UNIVERSITY OF CALIFORNIA, priority 2006, dated 2025)", "type_in_all_cases": "cell-based, human", "key": {"COX-2 in HMEC": {"system": "COX-2 in HMEC", "test": "exogenous induction of COX-2 by TGF-β in HMEC with modulated p16/Rb pathway (immunoblot)", "source_text": "DNA constructs. DNA constructs used in this study are as follows: pMSCV, pMSCV-shp16 (G. Hannon and S. Lowe, Cold Spring Harbor Laboratories); pLXSN, pLXSN-HPV 16 E7 (D. Galloway, Fred Hutchinson Cancer Center); pMKO, pMKO-shRb (W. Hahn, Harvard Medical School and Dana-Farber Cancer Institute), pBabe; pBabe-cyclinD1 (O. Tetsu, UCSF Cancer Center), pBabe, pBabe-hTert (K. Collins, UC-Berkeley); LXSP and LXSP-COX-2 (D. Dixon, Vanderbilt University Medical Center). All constructs were packaged in Phoenix A cells for viral propagation. To generate stable cell lines we exposed HMEC, vHMEC or breast cell lines to viral supernatant containing 8 μg/ml Polybrene (Sigma). Cells containing stable DNA integration were selected in medium containing 4 μg/ml puromycin (pMSCV, pMKO, and LXSP constructs), 50 μg/ml G418 (LXSN constructs) or 20 μg/nil hygromycin (pBabe). Where indicated, cell lines were imaged using a standard phase contrast microscopy.\nWestern Blot. Total protein (15-20 μg) lysates were electrophoretically separated by SDS-PAGE and transferred onto polyvinylidene difluoride (PVDF) membranes according to standard procedures. Antisera against COX-2 (160107; Cayman Chemical, MI), Rb (554136, BD Pharmingen), p16 (16P07 Neomarkers), E2F1 (sc-251 Santa Cruz), cyclinD1 (2926, Cell Signaling), p53 (se-126, Santa Cruz), p21 (SC-6246 Santa Cruz) were used according to manufacturers protocols.\nTo test this hypothesis, specific members of the p16/Rb pathway were genetically modulated, and the levels of COX-2 protein expression compared to HMEC that maintain p16 expression were determined. First, basal and induced COX-2 protein levels in HMEC lacking p16 activity were compared.\nTo extend this analysis, we determined how other alterations within this pathway, mutations common in cancer, affect COX-2 expression. We modulated the p16/Rb pathway by three additional methods, cyclin D1 overexpression, pRb downregulation, and expression of a viral oncoprotein, HPV 16-E7 and determined the effect on basal and exogenously-induced COX-2 protein levels. To determine if cyclin D1 induces and/or sensitizes cells to COX-2 induction, we measured COX-2 protein levels in HMEC engineered to stably express cyclin D1 under the regulation of an independent, constitutively active promoter. […] The absence of E2F1 upregulation following cyclin D1 overexpression supports our finding that Rb remains active. […] To determine if inactivation of Rb is sufficient for the upregulation of COX-2, we infected HMEC with a retrovirus containing a short hairpin RNA against Rb (shRb) and determined COX-2 protein levels in cells from two independent experiments. […] Similar to results obtained with Rb genetic silencing, expression of the human papilloma virus 16-E7 (HPV 16-E7) elevated both basal and induced levels of COX-2 protein (FIG. 12D). Stable expression of HPV16-E7 was performed in cells generated from three independent reduction mammoplasties. Mammary epithelial cells expressing HPV 16-E7 show downregulation of Rb and thus inactivation of Rb and consequently upregulation of E2F1 (FIG. 12D). HPV16-E7 is well characterized for its role as a transforming oncoprotein through targeted degradation of all three members of Rb family (Rb, p107 and p130) and driving E2F-dependent transactivation.\nFIG. 12A-E. Deregulation of distinct members of the p16/cyclin D1/Rb pathway differentially regulate COX-2. […]"}, "vHMEC-ras0.5 cells [1]": {"system": "vHMEC-ras0.5 cells", "test": "TGFβ-induced EMT in vHMEC-ras0.5 cells (immunofluorescence, flow cytometry, immunoblot, MSP)", "procedure": "Having observed that extracellular signaling induced by 10% serum can cooperate with intracellular ras activation to induce EMT in vHMEC, it was then asked whether appropriate growth factor stimulation could induce EMT in the immortalized vHMEC-ras0.5 cells which had maintained their epithelial morphology. […] Thiery et al. (2003) Curr. Opinion Cell. Biol. 15:740; and Zavadil et al. (2005) Oncogene 24:5764. vHMEC-ras0.5 cells were treated with TGFβ and the expression of molecular markers associated with EMT was assessed by immunofluorescence, flow cytometry, and immunoblot analysis. […] Coincident with the loss of epithelial marker expression was an upregulation in the expression of the mesenchymal markers, twist (FIG. 18B), N-cadherin, and fibronectin (FIG. 18C).\nUnlike the EMT observed in cells exposed to 10% serum, TGFβ-induced EMT is reversible. […] As expected, the promoter of the epithelial marker 14-3-3σ remained unmethylated in all the epithelial cells, and methylated in the human mammary fibroblasts, which were used as a positive control (FIG. 18D).\nFIGS. 18A-D. TGFβ induces EMT in vHMEC-ras0.5 cells without modulating methylation of E-cadherin. A. Inununofluorescence analysis. Cells were treated with 2 ng/ml TGFβ for 72 h, and immunostained for pancytokeratin, E-cadherin, β 1-integrin, and vimentin. B. Flow cytometric analysis of twist expression before (green curve) and after (purple curve) treatment with 2 ng/ml TGFβ for 72 h. C. Immunoblot analysis of the mesenchymal markers fibronectin (Fn) and N-cadherin (N-cad) was performed on cell lysates prepared from vHMEC-ras0.5 that were either untreated (−) or treated (+) with 2 ng/ml TGFβ for 72 h. Cell lystates prepared from human mammary fibroblasts were used as a positive control (C) and actin is shown as a loading control. D. MSP analysis of E-cadherin and 14-3 3σ was conducted on the PCR products of bisulfite-treated DNA isolated from vHMEC-ras0.5 untreated (−TGF) or treated (+TGF) with 2 ng/ml TGFβ for 96 h as described in FIGS. 3B and C. Bisulfite-modified DNA from MCF7 and MDA-MB-231 cells was used as unmethylated and methylated control templates, respectively for E-cadherin, while bisulfite-modified DNA from MDA-MB-231 and human mammary fibroblasts (HMF) served as unmethylated and methylated controls for 14-3-3s. Also included is a water control (no template)."}, "vHMEC-ras0.5 cells [2]": {"system": "vHMEC-ras0.5 cells", "test": "scratch migration assay of vHMEC-ras0.5 monolayers with time-lapse microscopy", "conditions": "TGFβ treated versus untreated cells"}, "[3]": {"conditions": "2 ng/ml TGFβ for 72 h, immunofluorescence"}}, "data": [{"substance": "TGF-β", "values": [{"measurement": "COX-2 protein after exogenous induction", "setting": "COX-2 in HMEC; HMEC expressing HPV 16-E7, 24 h exposure to 1 ng/ml TGF-β", "result": "elevated"}, {"measurement": "COX-2 protein after exogenous induction", "setting": "COX-2 in HMEC; HMEC overexpressing cyclin D1, 24 h exposure to 1 ng/ml TGF-β", "result": "failed to render cells sensitive"}, {"measurement": "COX-2 protein after exogenous induction", "setting": "COX-2 in HMEC; HMEC with shRb, 24 h exposure to 1 ng/ml TGF-β", "result": "increased"}, {"measurement": "COX-2 protein after exogenous induction", "setting": "COX-2 in HMEC; p16 silenced HMEC (shp16), 24 h exposure to 1 ng/ml TGF-β", "result": "COX-2 upregulation"}, {"measurement": "COX-2 protein after exogenous induction", "setting": "COX-2 in HMEC; vector control HMEC (pMSCV), 24 h exposure to 1 ng/ml TGF-β", "result": "unresponsive"}, {"measurement": "expression of the mesenchymal markers twist, N-cadherin and fibronectin", "setting": "vHMEC-ras0.5 cells [1]; 2 ng/ml TGFβ for 72 h, flow cytometry and immunoblot", "result": "upregulation"}, {"measurement": "E-cadherin expression", "setting": "vHMEC-ras0.5 cells [1]; [3]", "result": "loss"}, {"measurement": "cytokeratin expression", "setting": "vHMEC-ras0.5 cells [1]; [3]", "result": "diminution"}, {"measurement": "β1-integrin expression", "setting": "vHMEC-ras0.5 cells [1]; [3]", "result": "loss"}, {"measurement": "methylation of the E-cadherin promoter", "setting": "vHMEC-ras0.5 cells [1]; 2 ng/ml TGFβ for 96 h, MSP", "result": "not observed"}, {"measurement": "cell morphology (EMT)", "setting": "vHMEC-ras0.5 cells [1]; 2 ng/ml TGFβ, began within 48 h, clearly manifested by 72 h", "result": "morphological change"}, {"measurement": "migration into the denuded area", "setting": "vHMEC-ras0.5 cells [2]", "result": "increase in directed migration"}]}]}
